According to patent publication US20260365670A1, “EGFR INHIBITORS AND USES THEREOF” (DIZAL (JIANGSU) PHARMACEUTICAL CO., LTD., priority 2022, published 2026):
pIC50: −log10 of the molar value. Read-outs that look alike come from different tables or passages of the source.

Tests used:
[1] = biological target: T1, EGFR[T790M/C797S/L858R] (Homo sapiens, UniProt P00533, C797S/L858R/T790M); assay: Inhibition of EGFR[T790M/C797S/L858R] biochemical enzymatic activity (HTRF); conditions: EGFR T790M-C797S-L858R, 1 mM ATP, 1 h, room temperature, read-out: IC50 (nM) @T790M- C797S - L858R
T1 construct: purchased Carna Bio
Method in brief: (§1)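 Each enzyme was first added to plates holding compound. The reaction was then started with ATP (1 mM) and peptide substrate (1 μM). It was stopped after 1 h at room temperature with EDTA detection reagents and read at 615/665 nm to derive IC50s.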

[2] = test system: Ba/F3 cells expressing EGFR mutations; assay: Cell proliferation assay, Ba/F3 cells expressing EGFR mutations (CellTiter-Glo, 72 hours); assay type: cell-based; conditions: CellTiter-Glo
Method in brief: (§2)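 Ba/F3 cells (5000/well) and PC-9 cells (500/well, RPMI1640 with 10% FBS) were plated overnight and then dosed with a compound concentration series. Viable cells were read at day 0 (G0) and after treatment (G3). GI50 came from curve fits of G0-corrected proliferation relative to DMSO.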

[3] = test system: A-431; assay: Cell proliferation GI50, A-431 cells (Table 6); assay type: cell-based; conditions: Homo sapiens, A-431, A-431 cells
[4] = biological target: T2, EGFR wild type (Homo sapiens, UniProt P00533); assay: Inhibition of EGFR wild type biochemical enzymatic activity (HTRF); conditions: EGFR WT, 1 mM ATP, 1 h, room temperature, read-out: IC50 (nM) @WT
T2 construct: purchased Carna Bio
Method in brief: as §1

[5] = biological target: T3, EGFR[T790M/C797S/d746-750] (Homo sapiens, UniProt P00533, C797S/DEL746-750/T790M); assay: Inhibition of EGFR[T790M/C797S/d746-750] biochemical enzymatic activity (HTRF); conditions: EGFR T790M-C797S-Del19, 1 mM ATP, 1 h, room temperature, read-out: IC50 (nM) @T790M - C797S - Del19
T3 construct: purchased Carna Bio
Method in brief: as §1

[6] = biological target: T4, EGFR (C797S L858R) (Homo sapiens, UniProt P00533, C797S/L858R); assay: Inhibition of EGFR (C797S L858R) biochemical enzymatic activity (HTRF); conditions: EGFR L858-C797S, 1 mM ATP, 1 h, room temperature, read-out: IC50 (nM) @L858-C797S
T4 construct: purchased signalchem
Method in brief: as §1

[7] = biological target: T5, EGFR (d746-750 C797S) (Homo sapiens, UniProt P00533, C797S/DEL746-750); assay: Inhibition of EGFR (d746-750 C797S) biochemical enzymatic activity (HTRF); conditions: EGFR Del19-C797S, 1 mM ATP, 1 h, room temperature, read-out: IC50 (nM) @Del19-C797S
T5 construct: purchased signalchem
Method in brief: as §1

[8] = test system: PC-9; assay: Cell proliferation assay, PC-9 cells (CellTiter-Glo, 72 hours); assay type: cell-based; conditions: PC9 cells, CellTiter-Glo, read-out: PC9 GI50
Method in brief: as §2

[9] = biological target: T6, EGFR Exon19Del/T790M (Homo sapiens, UniProt P00533, DEL746-750/T790M); assay: Inhibition of EGFR Exon19Del/T790M biochemical enzymatic activity (HTRF); conditions: EGFR Del19-T790M, 1 mM ATP, 1 h, room temperature, read-out: IC50 (nM) @Del19-T790M
T6 construct: purchased Carna Bio
Method in brief: as §1

[10] = biological target: T7, EGFR L858R/T790M (Homo sapiens, UniProt P00533, L858R/T790M); assay: Inhibition of EGFR L858R/T790M biochemical enzymatic activity (HTRF); conditions: EGFR L858R-T790M, 1 mM ATP, 1 h, room temperature, read-out: IC50 (nM) @L858R-T790M
T7 construct: purchased Carna Bio
Method in brief: as §1

[11] = biological target: T8, EGFR Exon19Del (Homo sapiens, UniProt P00533, DEL746-750); assay: Inhibition of EGFR Exon19Del biochemical enzymatic activity (HTRF); conditions: EGFR Del19, 1 mM ATP, 1 h, room temperature, read-out: IC50 @Del19
T8 construct: purchased Carna Bio
Method in brief: as §1

[12] = biological target: T9, EGFR L858R (Homo sapiens, UniProt P00533, L858R); assay: Inhibition of EGFR L858R biochemical enzymatic activity (HTRF); conditions: 1 mM ATP, 1 h, room temperature, read-out: IC50 (nM) @L858R
T9 construct: purchased Carna Bio
Method in brief: as §1

[13] = Mus musculus, BaF3, 72 h, BaF3 cells, EGFR DEL19-C797S, read-out: DEL19-C797S/BaF3 GI50
[14] = Mus musculus, BaF3, 72 h, BaF3 cells, EGFR DEL19-T790-C797S, read-out: DEL19-T790-C797S/BaF3 GI50
[15] = Mus musculus, BaF3, 72 h, BaF3 cells, EGFR L858R, read-out: L858R/BaF3 GI50
[16] = Mus musculus, BaF3, 72 h, BaF3 cells, EGFR L858R-C797S, read-out: L858R-C797S/BaF3 GI50
[17] = Mus musculus, BaF3, 72 h, BaF3 cells, EGFR L858R-T790-C797S, read-out: L858R-T790-C797S/BaF3 GI50
[18] = Mus musculus, BaF3, 72 h, BaF3 cells, EGFR L858R-T790M, read-out: L858R-T790M/BaF3 GI50
[19] = Mus musculus, BaF3, 72 h, EGFR DEL19-T790M, read-out: DEL19-T790M GI50

T9 sequence (P00533 25-1210 L858R): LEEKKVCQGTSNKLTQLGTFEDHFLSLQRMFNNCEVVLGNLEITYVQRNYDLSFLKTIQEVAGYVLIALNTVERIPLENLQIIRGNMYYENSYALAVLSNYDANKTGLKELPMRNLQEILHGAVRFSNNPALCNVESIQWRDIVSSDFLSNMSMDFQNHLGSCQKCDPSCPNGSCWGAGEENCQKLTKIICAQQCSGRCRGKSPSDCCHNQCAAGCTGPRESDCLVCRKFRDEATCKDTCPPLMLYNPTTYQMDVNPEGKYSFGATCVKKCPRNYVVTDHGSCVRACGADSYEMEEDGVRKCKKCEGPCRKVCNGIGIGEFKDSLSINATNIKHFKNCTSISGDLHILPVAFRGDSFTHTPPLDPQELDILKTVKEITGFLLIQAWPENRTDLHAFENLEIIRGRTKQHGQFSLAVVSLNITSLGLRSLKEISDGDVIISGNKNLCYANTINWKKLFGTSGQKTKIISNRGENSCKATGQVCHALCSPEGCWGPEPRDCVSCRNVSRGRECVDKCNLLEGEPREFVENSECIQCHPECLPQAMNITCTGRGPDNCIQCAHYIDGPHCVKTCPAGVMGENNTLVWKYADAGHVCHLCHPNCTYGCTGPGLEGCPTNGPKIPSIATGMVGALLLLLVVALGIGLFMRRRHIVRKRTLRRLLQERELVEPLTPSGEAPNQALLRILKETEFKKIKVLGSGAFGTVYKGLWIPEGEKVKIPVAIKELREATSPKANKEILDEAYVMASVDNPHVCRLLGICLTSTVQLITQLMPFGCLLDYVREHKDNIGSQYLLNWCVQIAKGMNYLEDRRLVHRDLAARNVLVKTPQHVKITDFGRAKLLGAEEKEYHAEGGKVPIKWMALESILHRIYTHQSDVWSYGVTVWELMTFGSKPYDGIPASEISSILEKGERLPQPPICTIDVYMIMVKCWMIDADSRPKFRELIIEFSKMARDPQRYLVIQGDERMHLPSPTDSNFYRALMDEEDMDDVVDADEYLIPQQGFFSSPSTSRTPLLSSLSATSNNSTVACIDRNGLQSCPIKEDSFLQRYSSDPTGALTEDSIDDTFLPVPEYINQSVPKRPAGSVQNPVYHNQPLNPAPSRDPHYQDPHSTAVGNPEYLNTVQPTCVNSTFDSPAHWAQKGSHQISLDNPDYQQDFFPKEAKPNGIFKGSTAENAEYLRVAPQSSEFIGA
T4 sequence (P00533 25-1210 C797S/L858R): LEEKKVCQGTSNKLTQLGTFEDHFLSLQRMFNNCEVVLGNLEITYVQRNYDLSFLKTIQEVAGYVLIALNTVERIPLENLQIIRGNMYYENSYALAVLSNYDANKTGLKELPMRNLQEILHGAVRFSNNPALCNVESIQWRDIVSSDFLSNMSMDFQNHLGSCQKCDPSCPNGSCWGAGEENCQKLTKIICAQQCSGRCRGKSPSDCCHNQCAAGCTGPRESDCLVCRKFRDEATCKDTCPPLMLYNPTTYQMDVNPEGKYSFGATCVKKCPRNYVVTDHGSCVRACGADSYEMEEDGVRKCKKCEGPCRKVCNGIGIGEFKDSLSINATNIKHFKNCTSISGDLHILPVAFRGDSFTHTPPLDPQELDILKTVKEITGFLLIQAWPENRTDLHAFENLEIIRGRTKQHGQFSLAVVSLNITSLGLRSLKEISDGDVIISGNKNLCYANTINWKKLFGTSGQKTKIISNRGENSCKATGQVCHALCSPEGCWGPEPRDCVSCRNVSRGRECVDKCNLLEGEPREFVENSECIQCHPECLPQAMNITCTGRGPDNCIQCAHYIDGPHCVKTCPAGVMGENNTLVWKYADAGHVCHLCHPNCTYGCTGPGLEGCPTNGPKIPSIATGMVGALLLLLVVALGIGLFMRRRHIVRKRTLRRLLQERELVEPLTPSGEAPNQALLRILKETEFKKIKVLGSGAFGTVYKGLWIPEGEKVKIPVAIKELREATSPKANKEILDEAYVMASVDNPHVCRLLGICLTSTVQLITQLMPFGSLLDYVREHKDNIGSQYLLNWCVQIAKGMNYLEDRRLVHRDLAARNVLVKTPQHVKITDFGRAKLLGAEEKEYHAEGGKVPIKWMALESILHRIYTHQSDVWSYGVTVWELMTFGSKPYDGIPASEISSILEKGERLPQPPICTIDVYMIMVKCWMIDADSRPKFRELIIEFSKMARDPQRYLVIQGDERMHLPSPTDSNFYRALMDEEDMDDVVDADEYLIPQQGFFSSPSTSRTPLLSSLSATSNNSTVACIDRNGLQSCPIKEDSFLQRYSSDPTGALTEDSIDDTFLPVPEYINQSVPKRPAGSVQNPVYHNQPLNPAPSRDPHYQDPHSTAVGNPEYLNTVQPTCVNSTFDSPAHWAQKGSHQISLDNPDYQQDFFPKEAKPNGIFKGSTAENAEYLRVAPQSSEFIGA
T8 sequence (P00533 with tags, fused parts or gaps DEL746-750 limits assumed): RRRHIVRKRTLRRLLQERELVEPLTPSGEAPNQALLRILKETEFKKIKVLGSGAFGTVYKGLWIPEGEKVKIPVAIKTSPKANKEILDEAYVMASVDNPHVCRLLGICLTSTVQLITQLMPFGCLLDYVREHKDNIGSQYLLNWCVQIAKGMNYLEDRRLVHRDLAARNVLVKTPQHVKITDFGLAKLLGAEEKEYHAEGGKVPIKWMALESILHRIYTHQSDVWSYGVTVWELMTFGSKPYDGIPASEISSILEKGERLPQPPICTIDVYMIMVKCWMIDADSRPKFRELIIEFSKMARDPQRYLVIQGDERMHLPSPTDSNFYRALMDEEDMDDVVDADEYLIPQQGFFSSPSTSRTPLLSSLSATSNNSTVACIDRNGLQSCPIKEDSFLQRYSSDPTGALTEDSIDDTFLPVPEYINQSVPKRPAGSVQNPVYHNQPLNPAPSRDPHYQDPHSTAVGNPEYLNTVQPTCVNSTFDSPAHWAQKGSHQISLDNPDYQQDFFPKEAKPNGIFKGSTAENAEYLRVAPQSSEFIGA
T7 sequence (P00533 25-1210 T790M/L858R): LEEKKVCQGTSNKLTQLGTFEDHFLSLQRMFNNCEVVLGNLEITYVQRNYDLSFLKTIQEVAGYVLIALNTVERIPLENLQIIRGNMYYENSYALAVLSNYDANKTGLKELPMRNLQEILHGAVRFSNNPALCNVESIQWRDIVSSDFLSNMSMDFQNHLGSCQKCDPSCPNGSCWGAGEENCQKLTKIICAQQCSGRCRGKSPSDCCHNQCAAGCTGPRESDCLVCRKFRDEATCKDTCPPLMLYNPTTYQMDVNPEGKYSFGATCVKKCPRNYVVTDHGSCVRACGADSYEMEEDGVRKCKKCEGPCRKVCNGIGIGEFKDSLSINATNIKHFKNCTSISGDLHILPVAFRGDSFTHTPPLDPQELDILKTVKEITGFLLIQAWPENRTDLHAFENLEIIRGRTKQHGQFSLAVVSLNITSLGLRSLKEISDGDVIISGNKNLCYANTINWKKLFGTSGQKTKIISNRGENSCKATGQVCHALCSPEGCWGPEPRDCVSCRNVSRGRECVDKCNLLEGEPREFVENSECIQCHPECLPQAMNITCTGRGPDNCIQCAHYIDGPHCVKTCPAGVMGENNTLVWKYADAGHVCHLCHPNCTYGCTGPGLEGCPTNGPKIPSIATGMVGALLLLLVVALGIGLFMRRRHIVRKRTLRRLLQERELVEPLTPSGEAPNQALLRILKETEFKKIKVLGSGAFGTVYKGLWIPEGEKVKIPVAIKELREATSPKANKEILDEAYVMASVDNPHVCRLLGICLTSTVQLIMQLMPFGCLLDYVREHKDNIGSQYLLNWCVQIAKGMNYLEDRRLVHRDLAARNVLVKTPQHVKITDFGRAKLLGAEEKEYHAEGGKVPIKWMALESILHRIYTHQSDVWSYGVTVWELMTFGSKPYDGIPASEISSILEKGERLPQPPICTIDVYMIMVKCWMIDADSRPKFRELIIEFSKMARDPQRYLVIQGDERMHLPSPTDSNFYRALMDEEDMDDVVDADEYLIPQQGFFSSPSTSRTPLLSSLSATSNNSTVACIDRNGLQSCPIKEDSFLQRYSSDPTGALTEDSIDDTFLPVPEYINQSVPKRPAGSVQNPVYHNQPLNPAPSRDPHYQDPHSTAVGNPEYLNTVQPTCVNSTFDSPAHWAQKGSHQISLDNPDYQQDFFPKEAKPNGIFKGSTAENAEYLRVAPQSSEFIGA
T5 sequence (P00533 with tags, fused parts or gaps DEL746-750/C797S limits assumed): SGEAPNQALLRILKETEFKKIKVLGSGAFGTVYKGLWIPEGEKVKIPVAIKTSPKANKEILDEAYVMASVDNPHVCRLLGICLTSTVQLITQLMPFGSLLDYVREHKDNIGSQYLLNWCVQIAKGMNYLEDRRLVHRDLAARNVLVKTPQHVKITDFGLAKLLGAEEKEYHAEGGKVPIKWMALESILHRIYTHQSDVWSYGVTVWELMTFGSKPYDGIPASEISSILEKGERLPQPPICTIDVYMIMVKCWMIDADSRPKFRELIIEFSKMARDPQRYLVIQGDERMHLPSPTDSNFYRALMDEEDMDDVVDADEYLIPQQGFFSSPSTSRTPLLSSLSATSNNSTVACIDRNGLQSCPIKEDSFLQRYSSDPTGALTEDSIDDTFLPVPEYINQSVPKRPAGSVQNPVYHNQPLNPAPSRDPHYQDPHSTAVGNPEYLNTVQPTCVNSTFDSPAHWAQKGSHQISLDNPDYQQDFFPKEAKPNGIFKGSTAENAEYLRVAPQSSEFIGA

Question: C[C@@H]1CCCOc2c(cnn2C)-c2cc(cn(C)c2=O)C(=O)Nc2nc3ccc(N4CCC5(CCN(C)C5)CC4)cc3n2C1 [Example A35] was tested. Which IC50 [1] did it give?
Answer: The IC50 was 2 nM.

Question: What about the GI50 [2, 13] of the same molecule?
Answer: The GI50 was 0.38 nM.

Question: What about the GI50 [2, 14] of the same molecule?
Answer: Its GI50 is 0.5 nM.

Question: And the GI50 [2, 15]?
Answer: Its GI50 is 0.53 nM.

Question: What about the GI50 [2, 16] of the same molecule?
Answer: Its GI50 is 1.7 nM.

Question: What about the GI50 [2, 17] of the same molecule?
Answer: The GI50 was 1 nM.

Question: And the GI50 [2, 18]?
Answer: The GI50 was 3.4 nM.

Question: What about the GI50 [2, 19] of the same molecule?
Answer: Its GI50 is 1.6 nM.

Question: And the GI50 [3]?
Answer: The GI50 was 215 nM.

Question: And the IC50 [4]?
Answer: Its IC50 is 2.7 nM.

Question: What about the IC50 [5] of the same molecule?
Answer: The IC50 was 2 nM.

Question: And the IC50 [6]?
Answer: The IC50 was 1.8 nM.

Question: What about the IC50 [7] of the same molecule?
Answer: Its IC50 is 0.84 nM.

Question: And the GI50 ([8]; Homo sapiens, PC-9, 72 h)?
Answer: Its GI50 is 3.7 nM.

Question: And the IC50 [9]?
Answer: The IC50 was 1.9 nM.

Question: And the IC50 [10]?
Answer: Its IC50 is 2.2 nM.

Question: What about the pIC50 [11] of the same molecule?
Answer: The pIC50 was 8.96.

Question: And the IC50 [12]?
Answer: Its IC50 is 1.5 nM.

Question: Which results are given for Cn1ncc2c1OCCN1CCCCC(C1)n1c(nc3ccccc31)NC(=O)c1cc-2c(=O)n(C)c1 (stereo not drawn) [Example A8, 15,21-Dimethyl-23-oxa-2,9,11,15,20,21,26-heptaazahexacyclo[24.4.1.1^{13,17}.0^{2,10}.0^{3,8}.0^{18,22}]dotriaconta-3,5,7,9,13,17(32),18(22),19-octaene-12,16-dione]?
Answer: IC50 [1]: > 5000 nM; GI50 [2, 13]: 93 nM; GI50 [2, 14]: 401 nM; GI50 [2, 15]: 180 nM; GI50 [2, 16]: 332 nM; GI50 [2, 17]: 214 nM; GI50 [2, 18]: 977 nM; GI50 [2, 19]: 256 nM; GI50 [3]: 3880 nM; IC50 [4]: > 5000 nM; IC50 [5]: 226 nM; IC50 [6]: 3550 nM; IC50 [7]: 256 nM; GI50 ([8]; Homo sapiens, PC-9, 72 h): 180 nM; IC50 [9]: 290 nM; IC50 [10]: > 5000 nM; pIC50 [11]: 6.43; IC50 [12]: > 5000 nM

Question: CN1CCC2(CCN(c3ccc4nc5n(c4c3)C34CCC(CN(CCOc6c(cnn6C)-c6cc(cn(C)c6=O)C(=O)N5)C3)C4)CC2)C1 (single isomer, unassigned) [Example A82B] was tested. Which IC50 [1] did it give?
Answer: Its IC50 is 1.7 nM.

Question: What about the GI50 ([2]; BaF3 cells, EGFR DEL19-C797S, read-out: DEL19-C797S/BaF3 GI50) of the same molecule?
Answer: Its GI50 is 0.77 nM.

Question: What about the GI50 ([2]; BaF3 cells, EGFR DEL19-T790-C797S, read-out: DEL19-T790-C797S/BaF3 GI50) of the same molecule?
Answer: Its GI50 is 0.86 nM.

Question: And the GI50 ([2]; BaF3 cells, EGFR L858R, read-out: L858R/BaF3 GI50)?
Answer: The GI50 was 0.78 nM.

Question: What about the GI50 ([2]; BaF3 cells, EGFR L858R-C797S, read-out: L858R-C797S/BaF3 GI50) of the same molecule?
Answer: The GI50 was 0.68 nM.

Question: And the GI50 ([2]; BaF3 cells, EGFR L858R-T790-C797S, read-out: L858R-T790-C797S/BaF3 GI50)?
Answer: Its GI50 is 1 nM.

Question: What about the GI50 ([2]; BaF3 cells, EGFR L858R-T790M, read-out: L858R-T790M/BaF3 GI50) of the same molecule?
Answer: The GI50 was 0.82 nM.

Question: What about the GI50 ([2]; EGFR DEL19-T790M, read-out: DEL19-T790M GI50) of the same molecule?
Answer: Its GI50 is 0.9 nM.

Question: And the GI50 [3]?
Answer: Its GI50 is 203 nM.

Question: And the IC50 [4]?
Answer: The IC50 was 0.92 nM.

Question: And the IC50 [5]?
Answer: The IC50 was 2 nM.

Question: And the IC50 [6]?
Answer: The IC50 was 1.4 nM.

Question: What about the IC50 [7] of the same molecule?
Answer: The IC50 was 0.87 nM.

Question: What about the GI50 [8] of the same molecule?
Answer: The GI50 was 2.4 nM.

Question: What about the IC50 [9] of the same molecule?
Answer: Its IC50 is 2.1 nM.

Question: And the IC50 [10]?
Answer: The IC50 was 1.8 nM.

Question: And the pIC50 [11]?
Answer: The pIC50 was 8.96.

Question: What about the IC50 [12] of the same molecule?
Answer: Its IC50 is 0.87 nM.

Question: For CN1CCN(c2ccc3nc4n(c3c2)CCN(CC(F)(F)F)CCOc2c(cnn2C2CC2)-c2cc(cn(C)c2=O)C(=O)N4)CC1 [Example A2, 5-Cyclopropyl-26-methyl-16-(4-methylpiperazin-1-yl)-10-(2,2,2-trifluoroethyl)-7-oxa-4,5,10,13,20,22,26-heptaazapentacyclo[22.3.1.0^{2,6}.0^{13,21}.0^{14,19}]octacosa-1(28),2(6),3,14,16,18,20,24-octaene-23,27-dione], which IC50 [1] is on record?
Answer: Its IC50 is 3.4 nM.

Question: What about the GI50 [2, 13] of the same molecule?
Answer: Its GI50 is 5.8 nM.

Question: What about the GI50 [2, 14] of the same molecule?
Answer: The GI50 was 30 nM.

Question: What about the GI50 [2, 15] of the same molecule?
Answer: The GI50 was 3.7 nM.

Question: And the GI50 [2, 16]?
Answer: The GI50 was 5.2 nM.

Question: What about the GI50 [2, 17] of the same molecule?
Answer: The GI50 was 6.7 nM.

Question: What about the GI50 [2, 18] of the same molecule?
Answer: The GI50 was 5.5 nM.

Question: And the GI50 [2, 19]?
Answer: The GI50 was 33 nM.

Question: What about the GI50 [3] of the same molecule?
Answer: Its GI50 is 1010 nM.

Question: And the IC50 [4]?
Answer: Its IC50 is 52 nM.

Question: What about the IC50 [5] of the same molecule?
Answer: Its IC50 is 3.7 nM.

Question: What about the IC50 [6] of the same molecule?
Answer: The IC50 was 4.1 nM.

Question: And the IC50 [7]?
Answer: The IC50 was 3.7 nM.

Question: What about the GI50 ([8]; Homo sapiens, PC-9, 72 h) of the same molecule?
Answer: The GI50 was 80 nM.

Question: What about the IC50 [9] of the same molecule?
Answer: Its IC50 is 4.8 nM.

Question: And the IC50 [10]?
Answer: The IC50 was 4.3 nM.

Question: What about the pIC50 [11] of the same molecule?
Answer: Its pIC50 is 8.46.

Question: And the IC50 [12]?
Answer: Its IC50 is 5 nM.
